# PMC6225302, “Depsidone Derivatives and a Cyclopeptide Produced by Marine Fungus Aspergillus unguis under Chemical Induction and by Its Plasma Induced Mutant” (Molecules : A Journal of Synthetic Chemistry and Natural …, 2018)
# Read-outs that look alike come from different tables or passages of the source.
# Tests used:
# [1] = test system: Candida albicans (ATCC 10231); assay: Antimicrobial paper disc diffusion method; assay type: cell-based; settings: C. albicans, 10 μg per disc, paper disc diameter 6.0 mm, mean ± SD of three replicates; for zone of inhibition at 10 µg/disc: Candida albicans, ATCC10231
# Protocol: (§1) Preliminary antimicrobial tests for compounds 1‒10 were carried out against pathogenetic strains, including Pseudomonas aeruginosa (ATCC 9027), methicillin-resistant Staphylococcus aureus (A7983, clinical isolate donated by Zhijun Yu in Dalian Friendship Hospital, Dalian, China), Vibrio parahemolyticus (ZouB, aquatic pathogen donated by Chongqing Wen in College of Fishery, Guangdong Ocean University, Zhanjiang, China), and Candida albicans (ATCC 10231) using the disc diffusion method. Muller Hinton agar (MHA) and Sabouraud agar (SA) were used for antibacterial and antifungal tests, respectively. For each sample, 10 μg was added onto paper disc (diameter of 6 mm) for tests. The minimum inhibition concentrations (MICs) of the compounds were tested using microdilution methods. Ampicillin and ketoconazole were taken as positive controls for antibacterial and antifungal tests, respectively. Solvents (MeOH and DMSO) were used as blank controls.
# [2] = test system: Pseudomonas aeruginosa (ATCC 9027); assay: Antimicrobial paper disc diffusion method; assay type: cell-based; settings: P. aeruginosa, 10 μg per disc, paper disc diameter 6.0 mm, mean ± SD of three replicates; for zone of inhibition at 10 µg/disc: Pseudomonas aeruginosa, ATCC9027
# Protocol: as §1
# [3] = test system: Vibrio parahemolyticus (ZouB); assay: Antimicrobial paper disc diffusion method; assay type: cell-based; settings: V. parahemolyticus, incomplete inhibition, 10 μg per disc, paper disc diameter 6.0 mm, mean ± SD of three replicates; for zone of inhibition at 10 µg/disc: Vibrio
# Protocol: as §1
# [4] = test system: methicillin-resistant Staphylococcus aureus (A7983, clinical isolate); assay: Antimicrobial paper disc diffusion method; assay type: cell-based; settings: MRSA; for zone of inhibition at 10 µg/disc: Staphylococcus aureus; for Zone of Inhibition: 10 μg per disc, paper disc diameter 6.0 mm, mean ± SD of three replicates
# Protocol: as §1
# [5] = test system: Pseudomonas aeruginosa (ATCC 9027); assay: Antimicrobial microdilution method (MIC); assay type: cell-based; settings: ATCC9027, P. aeruginosa
# Protocol: as §1
# [6] = test system: methicillin-resistant Staphylococcus aureus (A7983, clinical isolate); assay: Antimicrobial microdilution method (MIC); assay type: cell-based; settings: MRSA
# Protocol: as §1
# [7] = test system: Vibrio parahemolyticus (ZouB); assay: microbe, parasite or virus in culture; assay type: cell-based; settings: Vibrio
# Protocol: as §1
# [8] = test system: Candida albicans (ATCC 10231); assay: Antimicrobial microdilution method (MIC); assay type: cell-based; settings: ATCC10231, C. albicans
# Protocol: as §1
# [9] = target: T1, Acetylcholinesterase (AChE, from electric eels) (Electrophorus electricus, UniProt O42275); assay: AChE inhibition assay (modified Ellman's method); assay type: biochemical; settings: AChE Inhibitory Activity (IC50), 0.2 U/mL, 37 °C
# T1 construct: purchased Sigma-Aldrich
# T1 sequence (O42275 24-633): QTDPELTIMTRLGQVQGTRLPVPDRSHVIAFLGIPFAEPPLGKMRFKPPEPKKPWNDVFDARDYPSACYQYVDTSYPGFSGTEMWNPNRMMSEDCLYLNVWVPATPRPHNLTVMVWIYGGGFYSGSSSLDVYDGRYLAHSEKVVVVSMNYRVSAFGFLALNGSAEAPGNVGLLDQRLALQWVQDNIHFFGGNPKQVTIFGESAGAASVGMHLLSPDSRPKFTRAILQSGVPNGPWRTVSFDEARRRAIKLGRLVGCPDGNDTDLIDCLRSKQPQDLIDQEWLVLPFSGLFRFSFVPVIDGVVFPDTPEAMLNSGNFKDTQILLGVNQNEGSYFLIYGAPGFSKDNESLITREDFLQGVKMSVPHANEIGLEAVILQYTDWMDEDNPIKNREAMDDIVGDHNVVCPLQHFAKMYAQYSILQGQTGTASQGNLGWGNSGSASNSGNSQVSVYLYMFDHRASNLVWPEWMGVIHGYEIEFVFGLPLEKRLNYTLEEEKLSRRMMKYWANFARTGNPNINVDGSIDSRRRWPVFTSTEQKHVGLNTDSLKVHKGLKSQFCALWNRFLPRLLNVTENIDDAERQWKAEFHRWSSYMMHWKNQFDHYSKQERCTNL
# Protocol: Acetylcholinesterase (AChE, from electric eels), acetythiocholine iodide (ATCh), 5,5-dithiobis-(2-nitrobenzoic acid) (DTNB), and bovine serum albumin (BSA, A1933) were purchased from Sigma-Aldrich. 100 mM PBS (pH = 7.4) was prepared with K2HPO4 and KH2PO4. In vitro AChE inhibitory activity was measured in 96-well plates using modified Ellman’s methods. […] Each well contained 1 μL of prepared sample, 49 μL of PBS, 10 μL of enzyme with a final concentration of 0.2 U/mL in BSA ([…] in PBS), and 20 μL of DTNB (5 mM in PBS). Then, the plates were preincubated at 37 °C for 10 min. Afterwards, 20 μL of ATCh (10 mM in PBS) was added into the well. After incubation at 37 °C for 20 min, the 96-well plates were read at 405 nm on the microplate reader, and the inhibition ratios to AChE were calculated using the following equation, where Asample blank stands for the absorbance of a well without enzyme, Asample stands for the absorbance of the treatment, Acontorl stands for the absorbance of the well without the sample, and Ablank stands for the absorbance of the well without the sample and enzyme. Donepezil was taken as a positive control. Inhibition of AChE (%)=[(Acontrol−Ablank)−(Asample−Asample blank)]/(Acontrol−Ablank)×100%
# The inhibition rates and concentration logarithm (lnC) values were imported into the Origin 8.0 software (OriginLab Co., Ltd., Northampton, MA, USA). The cubic polynomial regression equation was used to calculate ln(IC50). Then, IC50 was calculated using Microsoft Excel.
# [10] = DPPH free radical scavenging assay; settings: 0.16 mM DPPH, 30 min in darkness at room temperature
# Protocol: The free radical scavenging potentials of compounds 1‒10 were evaluated in 96-well plates using the DPPH free radical scavenging assay described by Sharma and Bhat. A total of 100 μL of the reaction mixture was composed of 50 μL of 0.16 mM DPPH (Sigma-Aldrich, St. Louis, MO, USA) in methanol and 50 μL of the test compound (in DMSO) with different concentrations (Asample). The reaction mixture was incubated for 30 min in darkness at room temperature. Meanwhile, 50 μL of 0.16 mM DPPH with 50 μL of DMSO was used as control (Acontrol), 50 μL of methanol and 50 μL of different concentrations of the test compound in DMSO were used as the sample blanks (Asample blank), 50 μL methanol with 50 μL DMSO was used as the blank (Ablank), while vitamin C was taken as a positive control. The absorbance was measured at 517 nm on the microplate reader. Scavenging capacity (%)=[(Acontrol−Ablank)−(Asample−Asample blank)]/(Acontrol−Ablank)×100%
# The EC50 value is the concentration required to scavenge 50% of DPPH radicals. Likewise, the EC50 was calculated using Origin 8.0 plotting and cubic polynomial regression.
# [11] = Brine shrimp larva lethality test; assay type: in vivo, Artemia salina; settings: Artemia salina (brine shrimp) larvae, 24 h at 28 °C, read-out: Larvicidal Activity (LC50)
# Protocol: Compounds 1‒10 were evaluated for larvicidality using the brine shrimp (Artemia salina) larva lethality test. 0.15 g of frozen eggs of brine shrimp larva (purchased from Aijia Aquarium Co., Zhanjiang, China) were activated at room temperature for 12 h. After activation, eggs were added to 1 L of artificial seawater (3% sea salt), ventilated with air for 420 mL/min, then kept at a brightness at 1000 lux and incubated at 28 °C for 24 h. After incubation, the larvae were induced to the top of the separating funnel by phototaxis, and the dead ones on bottom were discharged. Then, in each well of the 96-well plate, 1 μL of test compounds (in DMSO) with different concentrations and 99 μL of seawater containing 20‒30 live larvae were added. After incubation under light at 28 °C for 24 h, recorded the numbers of dead larvae. Finally, 10 μL of the Lucus reagent were added into each well and the total number of brine shrimp larva in the well were counted. DMSO and Hg(NO3)2 were used as blank control and positive control, respectively. Lethality rate (%)=(lethality of treatment−lethality of blank control)/survival rate of blank control×100%
# The brine shrimp larva LC50 value is the concentration required to kill 50% of the larvae. Likewise, the LC50 was calculated using Origin 8.0 plotting and cubic polynomial regression.
# [12] = live brine shrimp larvae in 96-well plate, other: immersion in seawater containing the compound
SMILES,Zone of Inhibition [1],zone of inhibition at 10 µg/disc [2] [mm],zone of inhibition at 10 µg/disc [3] [mm],zone of inhibition at 10 µg/disc [4] [mm],MIC [5] [µM],MIC [6] [µM],"MIC ([7]; V. parahemolyticus, microdilution method, read-out: MIC) [µM]",zone of inhibition at 10 µg/disc [1] [mm],MIC [8] [µM],MIC [7] [µM],IC50 [9] [µM],EC50 [10] [µM],"LC50 at 24 h [11, 12] [µM]",Zone of Inhibition [2],Zone of Inhibition [4],Zone of Inhibition [3],"LC50 at 24 h ([11]; in vivo, other: compound added to the seawater holding the larvae) [µM]"
"CC1(C)S[C@@H]2[C@H](NC(=O)[C@H](N)c3ccccc3)C(=O)N2[C@H]1C(=O)O [Ampicillin, reference compound]",-,12 ± 1.4,9,14,1.6,6.4,102,,,,,,,,,,
"C/C=C(\C)c1cc(OC(=O)c2c(C)cc(O)cc2O)c(C)c(O)c1C(=O)O [Compound 1, (E)-6-(but-2-en-2-yl)-4-((2,4-dihydroxy-6-methylbenzoyl)oxy)-2-hydroxy-3-methylbenzoic acid]",,7.7 ± 0.6,9.3 ± 0.6,12 ± 1,102,51.2,,8.3 ± 0.6,12.8,> 102,> 102,> 102,> 102,,,,
"C/C=C(\C)c1cc(O)c(C)c(OC(=O)c2c(/C(C)=C/C)cc(O)c(C)c2O)c1 [Compound 2, agonodepside A]",,,8,,,,,6 ± 0.5,,> 102,> 102,> 102,> 102,-,-,,
"CC=C(C)c1c(Cl)c(O)c(C)c2c1Oc1c(Cl)c(O)c(Cl)c(C)c1C(=O)O2 [Compound 3, nornidulin]",,12.2 ± 0.3,,,> 102,,,12.1 ± 0.2,> 102,,> 102,> 102,,,-,-,12.8
"CC=C(C)c1c(Cl)c(OC)c(C)c2c1Oc1c(Cl)c(O)c(Cl)c(C)c1C(=O)O2 [Compound 4, nidulin]",,9.5 ± 0.6,,9,> 102,102,,9,> 102,,> 102,> 102,4.5,,,-,
"CC=C(C)c1c(Br)c(O)c(C)c2c1Oc1c(Br)c(O)cc(C)c1C(=O)O2 [Compound 5, aspergillusidone F]",,11.9 ± 0.2,6.3 ± 0.6,14.5 ± 0.6,6.4,25.6,,7.5 ± 0.6,> 102,> 102,> 102,> 102,12.8,,,,
